Laboratory results reported in US10815275B2, “Antimicrobial peptoids with improved selectivity and use thereof” (priority 2018, dated 2020).
≈ marks a conversion by molar mass, not a printed value. Non-standard residues stand in square brackets, D forms with d. Residues, ends and D or L forms follow the SMILES beside them. No end group written: not given here. Nspe = C[C@H](NCC(=O)O)c1ccccc1; Nphe = O=C(O)CNCc1ccccc1; Nlys = NCCCCNCC(=O)O

Key:
red blood cells = assay: Hemolytic activity on red blood cells; format: cell-based, mouse
Method in brief: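 Washed mouse red blood cells (10% v/v in PBS, pH 7.4) incubated with peptoids for 1 h at 37 °C; released haemoglobin read at 540 nm. % hemolysis normalised to 0.1% Triton X-100 (100%) and PBS blank; HD10, HD50 derived, Hmax taken at 200 μM top concentration.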

[1] = Metabolic stability in human liver S9 fraction, HPLC; format: in vitro ADME; settings: human; for remaining at 24 h, 11.5 μM: s9, pH 7.4
Description: In order to identify metabolic stability of the peptoids synthesized in Preparation Example 1, such peptoids were subjected to enzymatic reaction using S9 fraction which is a mixture of human liver tissue-extracted metabolic enzymes. Thereafter, for the reaction products, metabolites were quantitated using HPLC.
Specifically, Peptoid NOS. 1 and 4, and Pexiganan as a peptide control (40 μL each, 100 μM) were treated with […], 3.3 mM MgCl2, and 1.3 mM NADPH buffer (306 μL, pH=7.4), to prepare respective samples. The respective samples were treated with S9 fraction (2 μL, 0.1 mg/mL) and then incubated at a temperature of 37° C. When 0, 1, 4, and 24 hours had elapsed after treatment with the S9 fraction, 40 μL of each sample was taken out, and acetonitrile containing the same amount of 0.1% trifluoroacetic acid was used to stop activity of enzymes contained in the S9 fraction. Thereafter, proteins precipitated with acetonitrile were centrifuged at a condition of 1,000×g for 10 minutes at a temperature of 4° C. Then, supernatant was analyzed by HPLC to identify an amount of the remaining peptoid which had not been degraded by the enzymes in the S9 fraction.

B. subtilis = format: cell-based; settings: 18 h
Description: In order to measure antimicrobial activity of the peptoids, Gram-positive B. subtilis or Gram-negative E. coli strain DH5α was treated with Peptoid NOS. 1, 18 to 23, and the peptide Pexiganan, and minimum inhibitory concentrations were measured. Peptoid NOS. 1 and 2, and the peptide Pexiganan are already known antimicrobial peptoids and peptides, and were used for the purpose of making a comparison with novel peptoids in terms of antimicrobial activity.
Specifically, B. subtilis or E. coli DHS a was inoculated into LB liquid medium, and cultured at a temperature of 37° C. for 18 hours. Thereafter, the bacteria were diluted with LB medium so that each bacterial number was 2×10^5 colony-forming units (CFU) per 1 mL, and dispensed into 96-well microtiter plates at 100 μL each. The peptoid, which is 2-fold serially diluted using sterile water, was added to each well at 100 μL each. The plates were incubated at a temperature of 37° C. for 18 hours.
(§1) Thereafter, absorbance was measured at a wavelength of 600 nm using a microplate reader (Bio-Rad). The lowest peptoid concentration that completely suppresses growth of microorganisms was measured by a minimum inhibitory concentration (MIC), and the measurement results are shown in Table 12 below. Each of the minimum inhibitory concentration values was calculated as an average value of numerical values obtained through three independent experiments.

MRCS cell line = assay: in vitro; format: cell-based; settings: concentration indicating 50% survival, 24 h, MTS; read-out: LC50 (the source's name)
Description: In order to determine whether the peptoids were cytotoxic against human cell lines, […] cell line (Korean Cell Line Bank) which is a human lung cell line was cultured in a DMEM (Dulbecco's modified Eagle's medium) culture solution containing 10% (v/v) fetal bovine serum (FBS) at 5% CO2 and a temperature of 37° C. 100 μL of DMEM medium was dispensed into each well of a 96-well microtiter plate so that the number of cells was 1.3×10^4, and then incubated overnight at a temperature of 37° C. in a 5% CO2 incubator. In this case, a DMEM medium was used as a negative control. Thereafter, the peptoid which is 2-fold serially diluted using sterile water was added to each well, and then incubated for 24 hours.
After incubation, 20 μL of an MTS solution [3-(4,5-dimethylthiazol-2-yl)-5-(3-carboxymethoxyphenyl)-2-(4-sulfophenyl)-2H-tetrazolium, inner salt; MTS] was added thereto and incubated at a temperature of 37° C. for 4 hours. Thereafter, % survival was calculated by measuring absorbance at a wavelength of 490 nm using an ELISA reader. The % survival was calculated as a percentage obtained by dividing the absorbance value for a well-treated with the peptoid by the absorbance value for a well containing control cells which had not been treated with the peptoid.

E. coli strain ATCC25922 = format: cell-based; settings: for MBC E. coli: ATCC25922; for MIC E. coli: ATCC25922, 18 h
Description: (§2) In order to measure antimicrobial activity of the peptoids, Gram-positive S. aureus strain KCTC1621, or Gram-negative E. coli strain ATCC25922 was treated with the peptoids prepared in Preparation Example 1, and minimum inhibitory concentrations were measured. Peptoid NOS. 1 and 2 are already known peptoids and were used for the purpose of making a comparison with novel peptoids in terms of antimicrobial activity.
(§3) Specifically, S. aureus strain KCTC1621 or E. coli strain ATCC25922 was inoculated into Mueller Hinton Broth (MHB2) liquid medium on which cations were adjusted, cultured at a temperature of 37° C. for 18 hours, and then subcultured for 4 hours. Thereafter, the strains were diluted with MHB2 liquid medium containing 0.2% bovine serum albumin and 0.01% acetic acid so that each bacterial number was 2×10^5 colony-forming units (CFU) per 1 mL, and dispensed into 96-well microtiter plates at 100 μL each. A peptoid stock which is 40-fold more concentrated than a concentration to be tested was added to each well at 2.5 μL or lower so that the peptoid stock was 2-fold serially diluted using sterile water. Thereafter, the plates were incubated at a temperature of 37° C. for 18 hours.
as §1, with “concentration (MIC) and a minimum bactericidal concentration (MBC),” for “concentration (MIC),”, “Table 5” for “Table 12”, “the MIC” for “the minimum inhibitory concentration”

[2] = system: S. aureus strain KCTC1621; format: cell-based; settings: for MBC S. aureus: KCTC1621; for MIC S. aureus: KCTC1621, 18 h
Description: as §2, §3
as §1, with “concentration (MIC) and a minimum bactericidal concentration (MBC),” for “concentration (MIC),”, “Table 5” for “Table 12”, “the MIC” for “the minimum inhibitory concentration”

E. coli (63103 ESBL) = assay: MIC in multidrug-resistant bacteria panel, modified microdilution; format: cell-based; settings: overnight, 37° C.
Description: (§4) Minimum inhibitory concentrations of the prepared peptoids for multidrug-resistant bacteria were measured using a modified microdilution method in Difco Mueller Hinton medium, and tests were done on a panel of bacterial pathogens which have resistance and tolerance against common antibiotics.
(§5) Briefly, a peptoid concentrate, which is 10-fold more concentrated than a final concentration, was serially diluted with a medium containing 0.2% bovine serum albumin and 0.01% acetic acid. 10 μL of the 10-fold concentrated peptoid concentrate and 90 μL of Muller Hinton medium were added to each well of a 96-well polypropylene microtitre plate. Bacteria were added to the plate so that a final concentration thereof was 2×10^5 CFU/mL, and then incubated overnight at a temperature of 37° C. The minimum inhibitory concentration was defined as a concentration at which no bacterial growth is observed.

P. aeruginosa (198B MDR) = assay: as above; format: cell-based; settings: overnight, 37° C.
Description: as §4, §5

P. aeruginosa (PA01) = assay: as above; format: cell-based; settings: overnight, 37° C.
Description: as §4, §5

S. aureus (ATCC25923) = assay: as above; format: cell-based; settings: overnight, 37° C.
Description: as §4, §5

[3] = system: S. epidermidis (ET-024 MRSA); assay: as above; format: cell-based; settings: overnight, 37° C.
Description: as §4, §5

E. coli = assay: Selectivity analysis, HD10 divided by MIC for E. coli; settings: HD10 of Table 6 divided by MIC for E. coli ATCC25922
Description: In order to identify changes in selectivity depending on alteration of degree of folding in helical structure of peptoids, selectivity of each peptoid was calculated using the resultant values measured in the Experimental Examples 1 and 2. The selectivity was obtained by dividing the HD10 value by the minimum inhibitory concentration for E. coli (Table 8).

Compound	HD10 (red blood cells)	HD50 (red blood cells)	remaining at 24 h, 11.5 μM [1]	MIC B. subtilis (B. subtilis)	CC50 (MRCS cell line)	MBC E. coli (E. coli strain ATCC25922)	MIC E. coli (E. coli strain ATCC25922)	MBC S. aureus [2]	MIC S. aureus [2]	minimum inhibitory concentration E. coli (63103 ESBL) (E. coli (63103 ESBL))	minimum inhibitory concentration P. aeruginosa (198B MDR) (P. aeruginosa (198B MDR))	minimum inhibitory concentration P. aeruginosa (PA01) (P. aeruginosa (PA01))	minimum inhibitory concentration S. aureus (ATCC25923) (S. aureus (ATCC25923))	minimum inhibitory concentration S. epidermidis (ET-024 MRSA) [3]	Selectivity [HD10/MIC (E. coli)] (E. coli)	remaining amount after S9 fraction treatment ([1]; s9, 24 h)
GIGKFLKKAKKFGKAFVKILKK-NH2 [Pexiganan, reference compound]	113.4	> 200	< 1%	0.4 µM	21.2 µM											
C[C@@H](c1ccccc1)N(CC(N)=O)C(=O)CN(Cc1ccccc1)C(=O)CN(CCCCN)C(=O)CN(Cc1ccccc1)C(=O)CN(Cc1ccccc1)C(=O)CN(CCCCN)C(=O)CN(Cc1ccccc1)C(=O)CN(Cc1ccccc1)C(=O)CN(CCCCN)C(=O)CN(C(=O)CN(C(=O)CNCCCCN)[C@@H](C)c1ccccc1)[C@@H](C)c1ccccc1 [compound 13]	81.7	> 200				25 µM (≈ 43.7 µg/mL)	25 µM (≈ 43.7 µg/mL)	6.3 µM (≈ 11 µg/mL)	3.1 µM (≈ 5.42 µg/mL)	6.3	6.3	6.3	3.1	<0.8 to 0.8	3.3	
C[C@@H](c1ccccc1)N(CC(=O)N(CCCCN)CC(=O)N(CC(=O)N(CC(=O)N(CCCCN)CC(=O)N(CC(=O)N(CC(N)=O)Cc1ccccc1)Cc1ccccc1)[C@@H](C)c1ccccc1)[C@@H](C)c1ccccc1)C(=O)CN(Cc1ccccc1)C(=O)CN(CCCCN)C(=O)CN(Cc1ccccc1)C(=O)CN(Cc1ccccc1)C(=O)CNCCCCN [compound 15] (H-[Nlys][Nphe][Nphe][Nlys][Nphe][Nspe][Nlys][Nspe][Nspe][Nlys][Nphe][Nphe]-NH2)	26.8	155.8				25 µM (≈ 43.7 µg/mL)	12.5 µM (≈ 21.9 µg/mL)	3.1 µM (≈ 5.42 µg/mL)	3.1 µM (≈ 5.42 µg/mL)	6.3	6.3		3.1	<0.8 to 0.8	2.1	
C[C@@H](c1ccccc1)N(CC(=O)N(CCCCN)CC(=O)N(CC(=O)N(CC(=O)N(CCCCN)CC(=O)N(CC(=O)N(CC(=O)N(CCCCN)CC(=O)N(CC(=O)N(CC(N)=O)Cc1ccccc1)Cc1ccccc1)Cc1ccccc1)Cc1ccccc1)Cc1ccccc1)Cc1ccccc1)C(=O)CN(Cc1ccccc1)C(=O)CNCCCCN [compound 4] (H-[Nlys][Nphe][Nspe][Nlys][Nphe][Nphe][Nlys][Nphe][Nphe][Nlys][Nphe][Nphe]-NH2)	89.6	> 200	74%			25 µM (≈ 43 µg/mL)	12.5 µM (≈ 21.5 µg/mL)	3.1 µM (≈ 5.34 µg/mL)	3.1 µM (≈ 5.34 µg/mL)		6.3	6.3		<0.8 to 0.8	7.1	≥ 60%
